Measurements as given in a melting point compilation (Tetko et al.; mined from patent text by program, amines drawn as free bases though some values may be those of a salt).

melting point [°C]	Structure (SMILES)
> 250	O=C(O)Cn1c(-c2ccc(Cl)cc2)nc2ccc(Cl)nc21
274 to 275	Cc1cc(C)nc(-n2cnc(S(=O)(=O)Nc3c(Cl)cccc3Cl)n2)n1
55 to 58	Cc1cccc(C(=O)c2ccc(Cl)cc2)c1O
198 to 199	COc1cc2c(cc1NC(=S)Nc1ccc([N+](=O)[O-])cc1)C(C)(C)OCC2(C)C
191	COc1ccc(Cc2c[nH]c(=O)c3ccccc23)cn1
204 to 206	CCCOc1cc2ccccc2c2c(=O)c(-c3ccc(OC)cc3)c(C)[nH]c12
88 to 89	NC(=O)N1CCC(=O)C(C(c2ccccc2)c2ccccc2)C1 (stereo unspecified)
110 to 112	O=C(O)Cc1cc(Cl)c2c(c1)CCC(C(F)(F)F)N2 (stereo unspecified)
157 to 159	NC(=O)Nc1c(C(O)(C(F)(F)F)C(F)(F)F)ccc2c1CCCC2
156 to 159	CN1CCC(=C2c3cc(C#N)ccc3C=Cn3cccc32)CC1
201 to 204	COc1ccc(CNC(=S)N2CCN(c3ncnc4cc(OC)c(OC)cc34)CC2)cc1
112 to 113	CCOC(=O)/C=C/c1cn(-c2ccc(C(F)(F)F)cn2)nc1C(C)C
198	CCSc1nsc(NC(=O)N(C)C)c1C#N
208 to 210	COc1ccc(Nc2cccc3c2C(=O)N(C2CCC(=O)NC2=O)C3=O)c(OC)c1 (stereo unspecified)
89 to 90	CCC1(Cc2ccccc2)CCNC1=O (stereo unspecified)
135	CC(=O)OC1CSC(Oc2cncc(-c3ccc(OC(C)C)cc3)c2)C(OC(C)=O)C1OC(C)=O (stereo unspecified)
189	O=Cc1ccc(C(=O)Nc2nccs2)cc1

melting point [°C]	Structure (SMILES)
175	O=C1CCc2cc(C(O)c3ccccc3)ccc2N1 (stereo unspecified)
59 to 60	CCCCCCCCCCCCC/C=C(/C(=O)Nc1ccc(C(=O)O)cc1)c1ccc2c(c1)C(C)(C)CCC2(C)C
156	COc1ccc(C(=O)CC2CCN(CCn3c(=O)[nH]c4ccccc43)CC2)cc1
165 to 168	O=C(O)CC(CSc1nc2ccccc2[nH]1)C(=O)O (stereo unspecified)
98 to 100	Nc1sc2c(c1C(=O)c1ccc(Cl)cc1)CCN(CCCc1ccccc1)C2
128	CC1C(C(=O)O)CC2CC1C2(C)C (single isomer, unassigned; (+))
208	CNc1nnc(-c2cc(C(C)(C)C)c(O)c(C(C)(C)C)c2)s1
183 to 185	CCCCCCCNC(=O)Nc1ccc(-n2ccnc2)cc1C(=O)NCC1CCN(C(c2ccccc2)c2ccccc2)CC1
263	N#Cc1ccc(COc2ccc(CC(NC(=O)c3cn4ccc(-c5ccc(Cl)cc5)cc4n3)C(=O)O)cc2)cc1 (stereo unspecified)
84 to 86	Cc1ccc(OC2CN(S(=O)(=O)c3ccc(C)cc3)CCc3ccccc32)cc1 (stereo unspecified)
124 to 126	Cc1ncc2c(c1C#N)COc1ccccc1C2=O
171	Cc1cc2c(cc1Cl)NC(=O)CC(c1cccc(-c3ccnc(CNC4CC4)c3)c1)=N2
100	COc1cccc(C(O)c2cc(Cl)ccc2N(CC(N)=O)S(=O)(=O)c2ccc(OC)c(OC)c2)c1 (stereo unspecified)
149 to 150	CSc1cc(CBr)cc(S(N)(=O)=O)c1Cc1ccccc1
202 to 205	CN1C(=O)N(C)C(Cc2c[nH]c3ccccc23)C1CCc1cc(C(F)(F)F)cc(C(F)(F)F)c1 (stereo unspecified)
203	Cc1ccc(-n2ncc(C(=O)O)c2C)cc1

The next lines start with the compound.

Structure (SMILES)	melting point [°C]
CN1C(C(=O)Nc2cncc(Cl)n2)=C(O)c2cc(Cl)ccc2S1(=O)=O	283 to 284
CS(=O)(=O)Nc1ccc(C(O)CN2CCCCCC2)cc1 (stereo unspecified)	120 to 122
C=CCN(C)C1(C#N)CCC2(CC1)OCCO2	47 to 50
CCC(C)(C)C(=O)Oc1cc2c(s1)CCN([C@H](C(=O)OC)c1ccccc1Cl)C2	98 to 100
O=C(O)CSC12CC3CC(CC(C3)C1)C2	71 to 73
CN(CCSCc1n[nH]c(CSCCN(C)C(N)=S)n1)C(N)=S	133 to 135
C[C@@H]1[C@H](NC(=O)C(=O)c2csc(N)n2)C(=O)N1S(=O)(=O)O	> 300
Cc1noc(-c2ccccc2)c1-c1ccc(S(C)(=O)=O)cc1	144 to 145
CC(C)c1cccc(C(C)C)c1NC(=O)CN1CCN(CCSc2nc3cccc(C(C)(C)C)c3o2)CC1	138 to 140
COc1ccccc1Sc1ccc2c(c1)CC[C@H]1NC(=O)CC[C@]21C	176 to 179
O=C(NC1N=C(c2ccccc2F)c2ccccc2NC1=O)c1ccc[nH]1 (racemic)	271 to 274
CC(C)(CC(=O)O)CC(=O)NC1(C(=O)NCCCCNc2ncccn2)Cc2ccccc2C1	70 to 83
CCOC(=O)c1cc2c(F)c(Cl)ccc2[nH]1	143 to 145
N=c1[nH]c2ccc(Cl)cc2c2nc(-c3ccco3)nn12	131 to 133
CCc1ccccc1/C(N)=C1\Sc2ccccc2C1=O	132 to 133
COc1cc2c(cc1OC)CN(CCc1cccc(NC(=O)c3cccc4c(=O)c5cccc(F)c5[nH]c34)c1)CC2	178
COc1ccc(O)c(C(=O)Nc2cc(Cl)cc(Cl)c2)c1	230 to 232
Cc1nc(-c2ccc(S(C)(=O)=O)cc2)c(-c2ccc(F)cc2)s1	134 to 135
O=C(O)c1sc(-c2cccnc2)nc1Cl	238 to 251
CS(=O)(=O)c1ccc(CN2CCN(C(=O)N3CCC(c4cn[nH]c4)C3)c3ccccc32)cc1 (stereo unspecified)	239
COc1cccc2c(Nc3ccccc3C)nc(N(C)C)nc12	141 to 143
O=c1c2ccccc2nc2n1CCc1c-2[nH]c2ccc(Cl)cc12	310 to 312
NCCNC(=O)COc1ccc(C2=NNC(=O)CC2)cc1Cl	168 to 170

Structure (SMILES)	melting point [°C]
CC1(CS(=O)(=O)c2ccccc2)COC2(CCC(=O)CC2)OO1 (stereo unspecified)	96
N#Cc1cc(NC(=O)C2CCc3ccccc3C2)ccc1N1CCC(O)CC1 (stereo unspecified)	163 to 165
CCn1c2c(c3ccccc31)C(=O)NCC2	203 to 204
CCOCc1nc2cnc3cc(O)ccc3c2n1CC1COC(C)(C)O1 (stereo unspecified)	239 to 240
COC(=O)C=Cc1cc2ccccc2nc1Cl	153 to 154
CC(=O)NC[C@H]1CN(c2ccc(N3CCC(n4nnnc4N)CC3)c(F)c2)C(=O)O1	174 to 176
Oc1cccnc1SCc1ccccc1	103 to 104
CC(=Cc1ccc(Br)cc1)c1ccc2c(C)c(C)c(C)c(C)c2c1	133 to 136
CCNC(=O)ON1C(=O)CCC1=O	131 to 133
CC(C)n1nc(-c2c(-c3ccccc3)nn3ccc(OCCN4CCCC4)cc23)ccc1=O	149 to 150
CCOc1cc2oc(=O)c3c(c2cc1OCC)CCN(CCN1CC2CCC(CC2)C1)C3	132 to 134
O=C(c1cccs1)c1cnn2c(-c3ccc(F)c(N(C(=O)OCC(Cl)(Cl)Cl)C(=O)OCC(Cl)(Cl)Cl)c3)ccnc12	94 to 97
Sc1nc(-c2ccccc2)c(-c2cccnc2)[nH]1	317 to 323
C[Si](C)(C)O[C@H]1C=C(S(=O)(=O)c2ccccc2)C=CCC1	61.9 to 63.8
C=CCC(NC(=O)C(CCCCN)NC(=O)Cc1cn(CC=C)c2ccccc12)C(=O)OC (stereo unspecified)	103 to 106
O=C(O)C(c1ccccc1)N1C(=O)c2cc(Cl)c(Cl)cc2C1=O (stereo unspecified)	228 to 232
COc1ccc2c(c1)/C(=C/C#N)C(c1ccccc1)C2 (stereo unspecified)	112 to 114
NC(N)=NC(=O)Cn1cccc1	214
COc1cc(NS(=O)(=O)c2ccc(Cl)cc2)c(C(=O)Nc2ccc(S(=O)(=O)N3CCSCC3)cc2)cc1OC	216 to 219
CCOC(=O)c1cc2c3ccccc3ncn2c1	138 to 139
C=CCN1CC2OC(c3ccccc3)(C1)c1ccccc12 (stereo unspecified)	127 to 128
O=C(O)C1=COc2ccccc2O1	183 to 184
Cc1cccc(-c2n[nH]cc2-c2ccc(F)c(-c3ccc(N4CCOCC4)cn3)c2)n1	88 to 90

Structure (SMILES)	melting point [°C]
CP1(=O)OCc2ccccc21 (stereo unspecified)	70 to 72
COc1ccc2c(c1)C(=O)c1sc(-c3ccccc3)nc1C2=O	> 260
CCN(CC)C(=O)c1ncccc1OC(=S)N(CC)CC	70 to 72
COC(=O)CC1CCCC2CC(=O)N(OCC(=O)C(CC(=O)O)NC(=O)OCc3ccccc3)C12 (stereo unspecified)	55 to 58
CC(C)=CCCC(C)=CCCC(C)=CCCC1(C)CCc2c(C)c(O)c(C)c(C)c2O1 (stereo unspecified)	25 to 28
COc1ccccc1N1CCN(Cc2c(C3CC3)nn(-c3ccccc3)c2N)CC1	70 to 74
CCCn1c(N)c(N=Cc2ccc(OCC(=O)O)cc2)c(=O)n(CCC)c1=O	179 to 180
CCOC(=O)c1ccc(C=C(C)c2cc3c(s2)C(C)(C)CCC3(C)C)cc1	118 to 120
CCn1cc(C(=O)O)c(=O)c2cc(F)c(N3CCNC(c4cccs4)C3)cc21 (stereo unspecified)	232 to 234
C#CCOC(=O)N1c2ccccc2C(=O)Nc2cccnc21	213
COC(=O)C(=O)c1ccc(OCCOc2ccccc2)cc1	79 to 81
O=C(NC(Cc1ccc(OCc2ccccc2)cc1)C(=O)O)c1cn2cc(-c3ccc(Cl)cc3)ccc2n1 (stereo unspecified)	270 to 271
COC(=O)c1ccc(C(=O)NS(=O)(=O)c2ccc(C(=O)NCCc3ccccc3)cc2)cn1	228 to 230
CNC(=N)NC(=O)c1nc(Cl)c(NC2CCCC2)nc1N	184 to 187
c1ccc(-n2nnc3c4ccccc4c(OCc4ccccn4)nc32)cc1	147 to 150
O=C(O)c1cccc(-n2cnc3cc(-c4ccccc4)ccc32)c1	289 to 291
C=C1N(CCC)C(=O)OC12CCNCC2	106 to 108
O=C1c2cccc([N+](=O)[O-])c2C(=O)N1c1ccc(O)cc1	202
c1ccc(-c2nc3ccccc3n2-c2ccccc2)cc1	105 to 107
CN1CCCCC(C2=CC(=O)CCC2)C1=O (stereo unspecified)	109 to 110
O=C(O)c1ccc(OCCCc2ccc(OCCCCOc3ccccc3)cc2)c(C(=O)N2CCC(C(=O)O)CC2)c1	142 to 143
COC(=O)C=C1CC(=O)N(c2ccccc2)c2cc(Cl)ccc2N1	199 to 201
